*1 amine or outer side, *2 acyl side, *3 side chain or, on linkers, in order; H or OH if unused. Where a SMILES comes first, the peptide text is derived from it. Side-chain parts run from the residue outwards. The star is where a group is joined. C18 diacid = O=C(O)CCCCCCCCCCCCCCCCC(=O)*; γGlu = O=C(O)[C@H](CCC(=O)[*:2])N[*:1]; AEEA = NCCOCCOCC(=O)O
Key:
[1] = In vitro subcutaneous tissue supernatant (SCts) stability and metabolite identification, rat; type: in vitro ADME; conditions: in vitro soft spot identification, rat SCts
[2] = In vivo metabolite identification on rat plasma samples after SC administration; conditions: rat plasma after SC administration at 1 mg/kg
Description: Software aided in vitro metabolite identification on SCts stability samples was performed using either Metabolite Pilot (Sciex) or Biopharma Finder (Thermo). In addition, metabolite identification using Metabolite Pilot was performed on plasma samples of Comp Y following SC administration to rat at 1 mg/kg.

[3] = subcutaneous tissue supernatant (SCts); conditions: male Sprague Dawley rats, 37° C., up to 2 hours

Row | Molecule | major metabolic soft spot, in vitro [1] | major metabolic soft spot, in vivo [2] | not cleaved [3] [% remaining at 2 h]
1 | CC[C@H](C)[C@H](N)C(=O)N[C@H](C(=O)N[C@@H](CC(C)C)C(=O)N[C@@H](CO)C(=O)N[C@@H](CC(C)C)C(=O)N[C@@H](CC(=O)O)C(=O)N[C@H](C(=O)N1CCC[C@H]1C(=O)N[C@H](C(=O)N[C@@H](CCCCN)C(=O)N[C@@H](CC(C)C)C(=O)N[C@@H](CCCCNC(=O)COCCOCCNC(=O)COCCOCCNC(=O)CC[C@H](NC(=O)CCCCCCCCCCCCCCCCC(=O)O)C(=O)O)C(=O)N[C@@H](CCCCN)C(=O)N[C@H](C(=O)N[C@@H](CC(C)C)C(=O)N[C@@H](CC(C)C)C(=O)N[C@@H](CCC(=O)O)C(=O)N[C@@H](CCC(N)=O)C(=O)N[C@@H](CCC(=O)O)C(=O)N[C@@H](CCCCN)C(=O)N[C@@H](CCC(N)=O)C(=O)N[C@@H](CCCCN)C(=O)N[C@@H](CCCCN)C(=O)N[C@@H](CCC(N)=O)C(=O)N[C@@H](CCCNC(=N)N)C(=O)N[C@@H](CCC(=O)O)C(=O)N[C@@H](CCC(N)=O)C(=O)N[C@@H](C)C(=O)N[C@@H](CCC(=O)O)C(=O)N[C@H](C(=O)N[C@@H](CC(N)=O)C(=O)N[C@@H](CCCCN)C(=O)N[C@@H](CCC(N)=O)C(=O)N[C@H](C(=O)N[C@@H](CC(C)C)C(=O)N[C@@H](C)C(=O)N[C@@H](CCC(N)=O)C(=O)N[C@H](C(N)=O)C(C)C)[C@@H](C)CC)[C@@H](C)O)[C@@H](C)CC)[C@@H](C)CC)C(C)C)C(C)C [SEQ ID No. 149, reference compound] (H-IVLSLDVPIKLK([AEEA-AEEA-γGlu-C18 diacid])KILLEQEKQKKQREQAETNKQILAQV-NH2) | N-terminus | N-terminus | –
2 | Ac-IVLSLDvPIKLK*KILLEQEKQKAibQREQAETNAibQILAQV-NH2 | – | – | 95
